Where no end group is shown, it is not given here.
Columns and labels:
VIP receptor = details: in vitro; cited from earlier work
cancer patients = experiment: Side effects of thymosin α1 administration; assay type: in vivo, humans; details: administration in conjunction with antineoplastics
[1] = tested on: cancer patients (lung, gastric, breast cancer) receiving chemotherapy; experiment: Nausea and vomiting classified according to WHO criteria, same trial; assay type: in vivo, humans; details: Cohort A with Tα1, n 54, P < 0.0005
Protocol: (§1) Method: A randomized crossover open label trial was performed. A total of sixty patients, twenty with lung cancer, twenty with gastric cancer and twenty with breast cancer were studied during two complete cycles of chemotherapy. All patients were randomized into two groups. In group 1, patients received chemotherapy with thymosin α1 in the first cycle, and without thymosin α1 in the second cycle. While patients in group 2 received chemotherapy without thymosin α1 in the first cycle, and with thymosin α1 in the second cycle. The patients were treated as follows:
(§2) Twenty lung cancer patients were treated with 100 mg of Etoposide IV on days 1-5 and 40 mg of Cisplatin I.V. on days 1-3 in a 21 day cycle.
(§3) Twenty gastric cancer patients were treated with 100 mg of Etoposide IV on days 1-5, 30 mg/m^2 Calcium Leucovorin I.V. on days 1-5 and 500 mg/m^2 5-Fluorouricil (5-FU) I.V. on days 1-5.
(§4) Twenty breast cancer patients were treated with 5-Fluorouricil 500 mg/m^2, Adriamycin I.V. 30 mg/m^2 I.V. on day 1 and cyclophosphamide 500 mg/m^2 I.V. on day 1.
(§5) A mild anti-emetic consisting of 20 mg metoclopamide, I.M. and 5 mg Dexamethasone I.V. were given to all patients on days 1-5. All subjects on thymosin received six injections of 1.6 mg s.c. Tα1 on each of the four days immediately preceding the chemotherapy and on days two and four following chemotherapy. All patients who have completed the two cycles of chemotherapy, then were reallocated into two cohorts, A and B. Cohort A are patients with Tα1, and Cohort B are patients without Tα1.

[2] = tested on: cancer patients (lung, gastric, breast cancer) receiving chemotherapy; experiment: Quality of life scored scale, randomized crossover open label trial of chemotherapy cycles with and without Tα1; assay type: in vivo, humans
Protocol: as §1, §2, §3, §4, §5
Analysis: Quality of life was analyzed using a scored scale for (1) loss of appetite, (2) loss of sleep, (3) fatigue, (4) reduction in daily activity, (5) decline in overall feeling, (6) depression and (7) nausea and vomiting. Maximum total score was 35 points.

## thymosin α1 (SDAAVDTSSEITTKDLKEKKEVVEEAEN; not fully specified; ends and bridges not checked; UniProt P06454 2-29, looked up) [Tα1, acidic polypeptide isolated from thymosin fraction 5, an immunomodulator that acts primarily by enhancing T-cell function]
VIP receptor
  VIP receptor binding: has a VIP receptor binding effect
Cancer patients
  Side effects of thymosin α1: does not appear to result in any side effects
[1]; without Tα1 0
  Nausea and vomiting WHO Gr. 4, number of patients: 0
[1]; without Tα1 4/53
  Nausea and vomiting WHO Grade 0, number of patients: 7/55
[1]; without Tα1 11
  Nausea and vomiting WHO Gr. 3, number of patients: 1
[1]; without Tα1 19
  Nausea and vomiting WHO Gr. 1, number of patients: 33
  Nausea and vomiting WHO Gr. 2, number of patients: 13
[2]; addition of Tα1 to chemotherapy cycles compared with cycles without Tα1
  Effect on quality of life scores: significantly increases the quality of life scores
[2]; cycles with Tα1 (1.6 mg s.c., six injections) vs. cycles without Tα1 3.70, p = 0.0001
  Fatigue, quality of life score: 4.05 vs. 3.70 p = 0.0001
[2]; cycles with Tα1 (1.6 mg s.c., six injections) vs. cycles without Tα1 3.72, p = 0.003
  Depression, quality of life score: 4.01 vs. 3.72 p = 0.003
[2]; cycles with Tα1 (1.6 mg s.c., six injections) vs. cycles without Tα1 3.84, p = 0.0001
  Reduction in Daily Activity, quality of life score: 4.12 vs. 3.84 p = 0.0001
[2]; cycles with Tα1 (1.6 mg s.c., six injections) vs. cycles without Tα1 3.93, p = 0.001
  Nausea and Vomiting, quality of life score: 4.29 vs. 3.93 p = 0.001
[2]; cycles with Tα1 (1.6 mg s.c., six injections) vs. cycles without Tα1 3.94, p = 0.0001
  Decline in Overall Feeling, quality of life score: 4.32 vs. 3.94 p = 0.0001
[2]; cycles with Tα1 (1.6 mg s.c., six injections) vs. cycles without Tα1 3.99, p = 0.0001
  Loss of Appetite, quality of life score: 4.33 vs. 3.99 p = 0.0001
[2]; cycles with Tα1 (1.6 mg s.c., six injections) vs. cycles without Tα1 4.10, p = 0.002
  Loss of Sleep, quality of life score: 4.41 vs. 4.10 p = 0.002

Reference: patent US6462017B1, “Method of reducing side effects of chemotherapy in cancer patients” (SciClone Pharmaceuticals, Inc., priority 2000, dated 2002)
